Experimental data as given in US12083100B1, “Antiparasitic isoxazoline compounds, long-acting injectable formulations comprising them, methods and uses thereof” (BOEHRINGER INGELHEIM ANIMAL HEALTH USA INC., priority 2016, dated 2024).

Legend:
[1] = tested on: Rhipicephalus microplus ticks; test: Efficacy of injectable formulation against Rhipicephalus (Boophilus) microplus ticks on cattle; type: in vivo; settings: for Average % Efficacy (Tick Count): vs untreated control
Experimental: The efficacy of long-acting injectable compositions of the invention comprising the compounds of formula (Ie) and (S)-Ie, against Rhipicephalus microplus ticks on cattle was determined against an untreated control group. The efficacy of compositions comprising the compounds (Ie) and (S)-e were also compared with injectable compositions comprising afoxolaner (formula Ia, 4-[5-[3-chloro-5-(trifluoromethyl)phenyl]-4,5-dihydro-5-(trifluoromethyl)-3-isoxazolyl]-N-[2-oxo-2-[(2,2,2-trifluoroethyl)amino]ethyl]-1-naphthalanecarboxamide), and comparative compounds of formulae (If) and (S)-If shown below.
Each compound was formulated in an injectable composition at a concentration of 10% (w/v) in a carrier comprising 8% (w/v) ethanol and Q.S. with polyethylene glycol 400. The racemic compounds afoxolaner and (If) were dosed at 1.0 mg/kg body weight and the (S)-enantiomers ((S)-Ie and (S)-If) were dosed at 0.5 mg/kg body weight. Six healthy head of cattle were used in each study group. Cattle in Group 1 were untreated (control). Cattle in Groups 2, 3, 4, 5 and 6 were treated on Day 0 subcutaneously with injectable compositions comprising the compounds of formula Ie, (S)-If, (S)-Ie, afoxolaner (Ia) and (If), respectively. Several weeks before treatment, cattle were infested three times a week with approximately 2500 Rhipicephalus microplus larvae to establish ongoing infestations. Each animal was challenged by infestation with approximately 5000 R. microplus larvae on Days 7 and 21 and every 14 days thereafter. Ticks dropping from each animal in the previous 24 hours were collected daily and counted from Day 1 until the end of the study.

[2] = tested on: Haematobia irritans (horn fly); test: Efficacy of long-acting injectable composition against Haematobia irritans (horn fly) on cattle; type: in vivo; settings: naturally infested cattle, 10% (w/v) composition at 0.25 mL/50 kg body weight
Experimental: The efficacy of a long-acting injectable composition comprising the compound of formula (S)-Ie against horn fly on cattle was evaluated. Two groups of 15 cattle were selected for the study and randomly assigned to one of two groups. The cattle in Group 1 were untreated and the cattle in Group 2 were treated with a long-acting composition of the invention containing 10% (w/v) of the compound of formula (S)-Ie in a carrier comprising 8% (w/v) ethanol in PEG 400 (QS). The composition was administered to the cattle in Group 2 at a dose of 0.25 mL/50 kg body weight. Each animal was naturally infested with horn flies, and horn fly counts were performed on Days-2, 3, 7, 10, 13, 16, 20, 23, 27, 30, 34, 37, 43, 45 and 48. Tables 2A and 2B below provide the horn fly counts and the % reduction of the treated group relative to the control.

[3] = injectable composition, compared with afoxolaner, (If) or (S)-If

## O=C(CNC(=O)c1ccc(C2=NO[C@@](c3cc(Cl)c(F)c(C(F)(F)F)c3)(C(F)(F)F)C2)c2ccccc12)NCC(F)(F)F [(S)-Ie]
[1]; Day 5, 0.5 mg/kg subcutaneous on Day 0 ((S)-enantiomers)
  Average % Efficacy (Tick Count): 66%
[1]; Day 10, 0.5 mg/kg subcutaneous on Day 0 ((S)-enantiomers)
  Average % Efficacy (Tick Count): 93%
[1]; Day 20, 0.5 mg/kg subcutaneous on Day 0 ((S)-enantiomers)
  Average % Efficacy (Tick Count): 100%
[1]; Day 30, 0.5 mg/kg subcutaneous on Day 0 ((S)-enantiomers)
  Average % Efficacy (Tick Count): 100%
[1]; Day 40, 0.5 mg/kg subcutaneous on Day 0 ((S)-enantiomers)
  Average % Efficacy (Tick Count): 100%
[1]; Day 49, 0.5 mg/kg subcutaneous on Day 0 ((S)-enantiomers)
  Average % Efficacy (Tick Count): 100%
[1]; Day 55, 0.5 mg/kg subcutaneous on Day 0 ((S)-enantiomers)
  Average % Efficacy (Tick Count): 100%
[1]; Day 60, 0.5 mg/kg subcutaneous on Day 0 ((S)-enantiomers)
  Average % Efficacy (Tick Count): 100%
[1]; Day 65, 0.5 mg/kg subcutaneous on Day 0 ((S)-enantiomers)
  Average % Efficacy (Tick Count): 100%
[1]; Day 70, 0.5 mg/kg subcutaneous on Day 0 ((S)-enantiomers)
  Average % Efficacy (Tick Count): 100%
[1]; Day 75, 0.5 mg/kg subcutaneous on Day 0 ((S)-enantiomers)
  Average % Efficacy (Tick Count): 100%
[1]; Day 80, 0.5 mg/kg subcutaneous on Day 0 ((S)-enantiomers)
  Average % Efficacy (Tick Count): 100%
[1]; Day 85, 0.5 mg/kg subcutaneous on Day 0 ((S)-enantiomers)
  Average % Efficacy (Tick Count): 90%
[1]; Day 88, 0.5 mg/kg subcutaneous on Day 0 ((S)-enantiomers)
  Average % Efficacy (Tick Count): 88%
[1]; Day 95, 0.5 mg/kg subcutaneous on Day 0 ((S)-enantiomers)
  Average % Efficacy (Tick Count): 92%
[1]; Day 100, 0.5 mg/kg subcutaneous on Day 0 ((S)-enantiomers)
  Average % Efficacy (Tick Count): 88%
[1]; Day 105, 0.5 mg/kg subcutaneous on Day 0 ((S)-enantiomers)
  Average % Efficacy (Tick Count): 76%
[1]; Day 110, 0.5 mg/kg subcutaneous on Day 0 ((S)-enantiomers)
  Average % Efficacy (Tick Count): 65%
[1]; [3]
  efficacy and duration of activity against Rhipicephalus microplus compared with other isoxazoline compounds: surprising and unexpected efficacy
  speed of onset of efficacy against Rhipicephalus microplus compared with other isoxazoline compounds: faster-acting
[2]; Day 3
  % Reduction of horn fly counts of the treated group relative to the control: 89.5%
  Arithmetic Mean of Horn Fly Counts: 26.7
[2]; Day 7
  % Reduction of horn fly counts of the treated group relative to the control: 74.3%
  Arithmetic Mean of Horn Fly Counts: 35.0
[2]; Day 10
  % Reduction of horn fly counts of the treated group relative to the control: 79.6%
  Arithmetic Mean of Horn Fly Counts: 16.0
[2]; Day 13
  % Reduction of horn fly counts of the treated group relative to the control: 63.3%
  Arithmetic Mean of Horn Fly Counts: 22.0
[2]; Day 16
  % Reduction of horn fly counts of the treated group relative to the control: 57.3%
  Arithmetic Mean of Horn Fly Counts: 44.7
[2]; Day 20
  % Reduction of horn fly counts of the treated group relative to the control: 56.6%
  Arithmetic Mean of Horn Fly Counts: 36.0
[2]; Day 23
  % Reduction of horn fly counts of the treated group relative to the control: 42.5%
  Arithmetic Mean of Horn Fly Counts: 30.7
[2]; Day 27
  % Reduction of horn fly counts of the treated group relative to the control: 61.8%
  Arithmetic Mean of Horn Fly Counts: 22.7
[2]; Day 30
  % Reduction of horn fly counts of the treated group relative to the control: 67.6%
  Arithmetic Mean of Horn Fly Counts: 23.0
[2]; Day 34
  % Reduction of horn fly counts of the treated group relative to the control: 44.8%
  Arithmetic Mean of Horn Fly Counts: 26.3
[2]; Day 37
  % Reduction of horn fly counts of the treated group relative to the control: 61.8%
  Arithmetic Mean of Horn Fly Counts: 28.0
[2]; Day 43
  % Reduction of horn fly counts of the treated group relative to the control: 39.5%
  Arithmetic Mean of Horn Fly Counts: 26.0
[2]; Day 45
  % Reduction of horn fly counts of the treated group relative to the control: 35.5%
  Arithmetic Mean of Horn Fly Counts: 43.0
[2]; Day 48
  % Reduction of horn fly counts of the treated group relative to the control: 31.1%
  Arithmetic Mean of Horn Fly Counts: 30.3
